Experimental data from patent US20230146455A1, “TREATMENT OF INFLAMMATORY DISEASES WITH PEPTIDES AND PHARMACEUTICAL COMPOSITIONS” (Yuyu Pharma, Inc., priority 2020, published 2023).
Values joined by “and” are separate entries in the source; they are usually repeats but may differ in a detail not shown here. Equal entries are not always repeated. Where a SMILES comes first, the peptide text is derived from it. [ ]: non-standard residue; d: D form. Hyp = O=C(O)[C@@H]1C[C@@H](O)CN1

Legend:
IL-1 alpha = test: Example 9 Luminex, LPS hPBMCs: IL-1 alpha; assay type: cell-based, human; details: IL-1 alpha, replicates and Mean
Method: (§1) Treatment Human PBMCs were pretreated with YY-101, YDE-011 and YDE-043 or reference compound; Xiidra® at various concentration (ranging from 1 nM to 100 uM) for 2 h before stimulation. An equal volume of 0.5% DMSO was used as a vehicle control. Then, the cells were treated with LPS at 5 ug/ml. The supernatants from treated cells were harvested at 24 h and placed in a 96 well for Luminex cytokine & chemokine profiling using a Luminex 200 multiplex assay (Luminex; R&D system, USA).
(§2) The main study arm with triplicate wells per group in a 24-well plate: • 1. Blank • 2. PBMC: 0.5% DMSO • 3. PBMC+LPS (5 ug/ml) • 4. PBMC+YY-101 100 uM • 5. PBMC+YY-101 10 uM • 6. PBMC+YY-101 1 uM • 7. PBMC+YY-101 0.1 uM • 8. PBMC+YY-101 0.01 uM • 9. PBMC+LPS (5 ug/ml)+Xiidra®100 uM • 10. PBMC+LPS (5 ug/ml)+Xiidra® 10 uM • 11. PBMC+LPS (5 ug/ml)+Xiidra® 1 uM • 12. PBMC+LPS (5 ug/ml)+Xiidra®0.1 uM • 13. PBMC+LPS (5 ug/ml)+Xiidra®0.01 uM • 14. PBMC+LPS (5 ug/ml)+Xiidra®0.001 uM • 15. PBMC+LPS (5 ug/ml)+YY-101 100 uM • 16. PBMC+LPS (5 ug/ml)+YY-101 10 uM • 17. PBMC+LPS (5 ug/ml)+YY-101 1 uM • 18. PBMC+LPS (5 ug/ml)+YY-101 0.1 uM • 19. PBMC+LPS (5 ug/ml)+YY-101 0.01 uM • 20. PBMC+LPS (5 ug/ml)+YY-101 0.001 uM • 21. PBMC+LPS (5 ug/ml)+YDE-011 100 uM • 22. PBMC+LPS (5 ug/ml)+YDE-011 10 uM • 23. PBMC+LPS (5 ug/ml)+YDE-011 1 uM • 24. PBMC+LPS (5 ug/ml)+YDE-011 0.1 uM • 25. PBMC+LPS (5 ug/ml)+YDE-011 0.01 uM • 26. PBMC+LPS (5 ug/ml)+YDE-011 0.001 uM • 27. PBMC+LPS (5 ug/ml)+YDE-043 100 uM • 28. PBMC+LPS (5 ug/ml)+YDE-043 10 uM • 29. PBMC+LPS (5 ug/ml)+YDE-043 1 uM • 30. PBMC+LPS (5 ug/ml)+YDE-043 0.1 uM • 31. PBMC+LPS (5 ug/ml)+YDE-043 0.01 uM • 32. PBMC+LPS (5 ug/ml)+YDE-043 0.001 uM
(§3) Multiplex assay was used to measure 30 cytokines and chemokines. The 1:2, 1:10 and 1:200 diluted cell supernatant and serial dilution of the standard were dispensed into a 96 well plate at 50 ul/well. Then, the pre-mixed cocktail of antibody-coated magnetic beads was dispensed at 50 ul/well and incubated at room temperature for 2 h in a horizontal orbital microplate shaker at 800±500 rpm. The beads were washed using a magnetic device to prevent loss. The biotin-antibody was dispensed in 50 ul of each well and incubated at room temperature for 1 h in a shaker at 800±500 rpm. After washing, streptavidin-PE was added at 50 ul/well and incubated at room temperature for 30 min in a shaker under the same conditions. Finally, after washing, wash buffer (100 ul/well) was added to the plate and incubated in a shaker for 2 min. The Luminex™ 200 setting were set according to the manufacturer's protocol. The data was calculated with a standard five-parameter logistic nonlinear regression analysis of the data (xPonent software 4.2, USA). The levels of cytokine/chemokine are normalized to the live cell counts (1×10^5 cells/mL) and presented as concentrations per mL (pg/mL or ng/mL).

MMP-9 = test: Example 9 Luminex, LPS hPBMCs: MMP-9; assay type: cell-based, human
Method: as §1, §2, §3

[1] = PBMC + LPS(5 ug/ml) + YDE043 0.001 uM
[2] = PBMC + LPS(5 ug/ml) + YDE043 0.001 uM, mean
[3] = PBMC + LPS(5 ug/ml) + YDE043 0.01 uM
[4] = PBMC + LPS(5 ug/ml) + YDE043 0.01 uM, mean
[5] = PBMC + LPS(5 ug/ml) + YDE043 0.1 uM
[6] = PBMC + LPS(5 ug/ml) + YDE043 0.1 uM, mean
[7] = PBMC + LPS(5 ug/ml) + YDE043 1 uM
[8] = PBMC + LPS(5 ug/ml) + YDE043 1 uM, mean
[9] = PBMC + LPS(5 ug/ml) + YDE043 10 uM
[10] = PBMC + LPS(5 ug/ml) + YDE043 10 uM, mean
[11] = PBMC + LPS(5 ug/ml) + YDE043 100 uM
[12] = PBMC + LPS(5 ug/ml) + YDE043 100 uM, mean
[13] = PBMC + LPS(5 ug/ml) + 0.001 uM, Mean
[14] = PBMC + LPS(5 ug/ml) + 0.001 uM, single replicates
[15] = PBMC + LPS(5 ug/ml) + 0.01 uM, Mean
[16] = PBMC + LPS(5 ug/ml) + 0.01 uM, single replicates
[17] = PBMC + LPS(5 ug/ml) + 0.1 uM, Mean
[18] = PBMC + LPS(5 ug/ml) + 0.1 uM, single replicates
[19] = PBMC + LPS(5 ug/ml) + 1 uM, Mean
[20] = PBMC + LPS(5 ug/ml) + 1 uM, single replicates
[21] = PBMC + LPS(5 ug/ml) + 10 uM, Mean
[22] = PBMC + LPS(5 ug/ml) + 10 uM, single replicates
[23] = PBMC + LPS(5 ug/ml) + 100 uM, Mean
[24] = PBMC + LPS(5 ug/ml) + 100 uM, single replicates

In the case of `CC(C)C[C@H](NC(=O)[C@H](CCC(N)=O)NC(=O)CNC(=O)[C@@H]1C[C@@H](O)CN1)C(=O)NCC(=O)O` [YDE-043] (H-[Hyp]GQLG-OH; N-terminus and C-terminus assumed), the Concentration (IL-1 alpha; [1]) is reported as 339.1 pg/mL and 369.6 pg/mL and 357.7 pg/mL, the conc/live cell (IL-1 alpha; [1]) is reported as 77.1 pg/10^5 and 61.6 pg/10^5 and 77.8 pg/10^5 and the Concentration (IL-1 alpha; [2]) is reported as 355.5 pg/mL. The conc/live cell (IL-1 alpha; [2]) was 72.1 pg/10^5, the Concentration (IL-1 alpha; [3]) was 352.5 pg/mL and 342.5 pg/mL and 370.4 pg/mL and the conc/live cell (IL-1 alpha; [3]) was 78.3 pg/10^5 and 51.9 pg/10^5 and 74.1 pg/10^5. For the same compound, the Concentration (IL-1 alpha; [4]) was 355.1 pg/mL, the conc/live cell (IL-1 alpha; [4]) was 68.1 pg/10^5 and the Concentration (IL-1 alpha; [5]) was 361.4 pg/mL and 329.0 pg/mL and 382.6 pg/mL. The conc/live cell (IL-1 alpha; [5]) was 72.3 pg/10^5 and 58.8 pg/10^5 and 68.3 pg/10^5, the Concentration (IL-1 alpha; [6]) was 357.7 pg/mL and the conc/live cell (IL-1 alpha; [6]) was 66.5 pg/10^5. The Concentration (IL-1 alpha; [7]) was 344.7 pg/mL and 332.4 pg/mL and 338.7 pg/mL, the conc/live cell (IL-1 alpha; [7]) was 59.4 pg/10^5 and 69.2 pg/10^5 and 63.9 pg/10^5 and the Concentration (IL-1 alpha; [8]) was 338.6 pg/mL. For the same compound, the conc/live cell (IL-1 alpha; [8]) was 64.2 pg/10^5, the Concentration (IL-1 alpha; [9]) was 357.4 pg/mL and 342.1 pg/mL and 351.0 pg/mL and the conc/live cell (IL-1 alpha; [9]) was 68.7 pg/10^5 and 63.3 pg/10^5 and 62.7 pg/10^5. The Concentration (IL-1 alpha; [10]) was 350.2 pg/mL, the conc/live cell (IL-1 alpha; [10]) was 64.9 pg/10^5 and the Concentration (IL-1 alpha; [11]) was 454.5 pg/mL and 414.4 pg/mL. For the same compound, the conc/live cell (IL-1 alpha; [11]) was 73.3 pg/10^5 and 64.7 pg/10^5, the Concentration (IL-1 alpha; [12]) was 434.4 pg/mL and the conc/live cell (IL-1 alpha; [12]) was 69.0 pg/10^5. For the same compound, the “MMP-9 Concentration” value (MMP-9; [13]) was 222.6 pg/mL, the MMP-9 conc/live cell (MMP-9; [13]) was 45.0 pg/10^5 and the “MMP-9 Concentration” value (MMP-9; [14]) was 170.9 pg/mL and 234.0 pg/mL and 262.8 pg/mL. The MMP-9 conc/live cell (MMP-9; [14]) was 38.8 pg/10^5 and 39.0 pg/10^5 and 57.1 pg/10^5, the “MMP-9 Concentration” value (MMP-9; [15]) was 186.3 pg/mL and the MMP-9 conc/live cell (MMP-9; [15]) was 35.6 pg/10^5. The “MMP-9 Concentration” value (MMP-9; [16]) was 180.2 pg/mL and 186.3 pg/mL and 192.4 pg/mL, the MMP-9 conc/live cell (MMP-9; [16]) was 40.0 pg/10^5 and 28.2 pg/10^5 and 38.5 pg/10^5 and the “MMP-9 Concentration” value (MMP-9; [17]) was 173.9 pg/mL. The MMP-9 conc/live cell (MMP-9; [17]) was 32.4 pg/10^5, the “MMP-9 Concentration” value (MMP-9; [18]) was 192.4 pg/mL and 155.2 pg/mL and 174.0 pg/mL and the MMP-9 conc/live cell (MMP-9; [18]) was 38.5 pg/10^5 and 27.7 pg/10^5 and 31.1 pg/10^5. The “MMP-9 Concentration” value (MMP-9; [19]) was 178.0 pg/mL, the MMP-9 conc/live cell (MMP-9; [19]) was 33.5 pg/10^5 and the “MMP-9 Concentration” value (MMP-9; [20]) was 198.5 pg/mL and 155.2 pg/mL and 180.2 pg/mL. For the same compound, the MMP-9 conc/live cell (MMP-9; [20]) was 34.2 pg/10^5 and 32.3 pg/10^5 and 34.0 pg/10^5, the “MMP-9 Concentration” value (MMP-9; [21]) was 189.3 pg/mL and the MMP-9 conc/live cell (MMP-9; [21]) was 35.1 pg/10^5. The “MMP-9 Concentration” value (MMP-9; [22]) was 198.5 pg/mL and 192.4 pg/mL and 177.1 pg/mL, the MMP-9 conc/live cell (MMP-9; [22]) was 38.2 pg/10^5 and 35.6 pg/10^5 and 31.6 pg/10^5 and the “MMP-9 Concentration” value (MMP-9; [23]) was 139.0 pg/mL. The MMP-9 conc/live cell (MMP-9; [23]) was 22.1 pg/10^5, the “MMP-9 Concentration” value (MMP-9; [24]) was 148.8 pg/mL and 129.2 pg/mL and the MMP-9 conc/live cell (MMP-9; [24]) was 24.0 pg/10^5 and 20.2 pg/10^5.
